This is an account of results in patent publication US10323038B2, “Pyrazole compounds and methods of making and using same” (ABIDE THERAPEUTICS, INC., priority 2015, dated 2019).

One experiment concerns the target MAGL (Mus musculus (Mouse), UniProt O35678). The experiment in a line: In vitro competitive activity-based protein profiling, MAGL (mouse). The format is biochemical. Particulars: for inhibition at 1 µM: read-out: MAGL % inh. 1 μM (mouse). The procedure:
(§1) In Vitro Competitive Activity-Based Protein Profiling.
(§2) Proteomes (mouse brain membrane fraction or cell lysates for mouse assays; human prefrontal cortex or cell membrane fractions for human assays) (50 μL, 1.0 mg/mL total protein concentration) were preincubated with varying concentrations of inhibitors at 37° C. After 30 min, FP—Rh or HT-01 (1.0 μL, 50 μM in DMSO) was added and the mixture was incubated for another 30 min at 37° C. Reactions were quenched with SDS loading buffer (15 μL-4×) and run on SDS-PAGE. Following gel imaging, serine hydrolase activity was determined by measuring fluorescent intensity of gel bands corresponding to MAGL and FAAH using ImageJ 1.43u software.

Another experiment addresses FAAH (Mus musculus (Mouse), UniProt O08914). The experiment in a line: In vitro competitive activity-based protein profiling, FAAH (mouse). The format is biochemical. Particulars: for inhibition at 1 µM: read-out: FAAH % inh. 1 μM (mouse). How it is done: as §1, §2

Structures are written as SMILES.

FAAH, sequence (O08914 whole entry): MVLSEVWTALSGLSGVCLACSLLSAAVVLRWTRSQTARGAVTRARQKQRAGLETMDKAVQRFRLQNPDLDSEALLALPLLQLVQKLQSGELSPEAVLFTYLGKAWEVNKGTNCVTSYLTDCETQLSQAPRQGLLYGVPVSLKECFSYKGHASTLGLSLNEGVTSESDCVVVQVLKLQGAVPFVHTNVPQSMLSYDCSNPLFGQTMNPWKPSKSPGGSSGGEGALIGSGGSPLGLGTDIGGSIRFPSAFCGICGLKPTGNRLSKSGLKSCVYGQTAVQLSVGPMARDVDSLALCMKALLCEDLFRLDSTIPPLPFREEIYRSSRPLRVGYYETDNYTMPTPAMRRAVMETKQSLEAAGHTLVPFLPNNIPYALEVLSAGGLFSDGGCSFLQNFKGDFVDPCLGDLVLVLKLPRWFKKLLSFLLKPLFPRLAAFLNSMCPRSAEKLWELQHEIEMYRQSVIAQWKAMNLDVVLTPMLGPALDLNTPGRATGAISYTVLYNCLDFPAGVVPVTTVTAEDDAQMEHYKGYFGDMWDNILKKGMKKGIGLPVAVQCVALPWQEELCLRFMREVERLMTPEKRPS
MAGL, sequence (O35678 whole entry): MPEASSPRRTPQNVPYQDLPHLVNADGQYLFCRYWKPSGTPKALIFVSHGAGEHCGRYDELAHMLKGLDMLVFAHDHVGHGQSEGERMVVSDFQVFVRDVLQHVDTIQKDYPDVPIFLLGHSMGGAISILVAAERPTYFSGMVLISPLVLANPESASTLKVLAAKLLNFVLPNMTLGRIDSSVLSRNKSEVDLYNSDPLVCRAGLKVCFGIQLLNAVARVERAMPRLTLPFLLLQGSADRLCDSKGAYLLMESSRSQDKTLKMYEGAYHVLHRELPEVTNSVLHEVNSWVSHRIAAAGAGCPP

As for `CC(=O)N(C)c1cnn(C(=O)N2CCC3(CCN(Cc4cc(Cl)ccc4Cl)C3)C2)c1` (racemic) [Example 175, N-(1-(7-(2,5-dichlorobenzyl)-2,7-diazaspiro[4.4]nonane-2-carbonyl)-1H-pyrazol-4-yl)-N-methylacetamide], the figures for the IC50 on MAGL and at FAAH were 0.1 to 1 µM and at most 0.1 µM, respectively. Moreover, the inhibition at 1 µM at MAGL and at FAAH was at least 75% throughout.

Regarding `CC(=O)N(C)c1cnn(C(=O)N2CCC3(CCN(Cc4cccc(C(F)(F)F)c4)C3)C2)c1` (single isomer, unassigned) [Example 65, N-methyl-N-(1-(7-(3-(trifluoromethyl)benzyl)-2,7-diazaspiro[4.4]nonane-2-carbonyl)-1H-pyrazol-4-yl)acetamide], at MAGL, the IC50 was in the range of 0.1 to 1 µM and the inhibition at 1 µM was at least 75%. Moreover, on FAAH, the half-maximal inhibitory concentration (IC50) is at most 0.1 µM and the inhibition at 1 µM was at least 75%.

As to `CC(=O)N(C)c1cnn(C(=O)N2CCC3(CCN(Cc4cccc(C(F)(F)F)c4)C3)C2)c1` (single isomer, unassigned) [Example 66, N-methyl-N-(1-(7-(3-(trifluoromethyl)benzyl)-2,7-diazaspiro[4.4]nonane-2-carbonyl)-1H-pyrazol-4-yl)acetamide], the values for the 50% inhibitory concentration (IC50) on MAGL and at FAAH were 0.1 to 1 µM and at most 0.1 µM, respectively.

`CC(=O)N(C)c1cnn(C(=O)N2CCC3(CCN(Cc4cc(Cl)ccc4Cl)C3)C2)c1` (single isomer, unassigned) [Example 176, N-(1-(7-(2,5-dichlorobenzyl)-2,7-diazaspiro[4.4]nonane-2-carbonyl)-1H-pyrazol-4-yl)-N-methylacetamide]: the IC50 on MAGL and on FAAH was at most 0.1 µM in each case. In addition, the inhibition at 1 µM on MAGL and on FAAH was at least 75% in each case.

With `CC(=O)N(C)c1cnn(C(=O)N2CCC3(CCN(Cc4cc(Cl)ccc4Cl)C3)C2)c1` (single isomer, unassigned) [Example 177, N-(1-(7-(2,5-dichlorobenzyl)-2,7-diazaspiro[4.4]nonane-2-carbonyl)-1H-pyrazol-4-yl)-N-methylacetamide], the IC50 on MAGL and at FAAH was at most 0.1 µM in each case.

Take `CC(=O)N(C)c1cnn(C(=O)N2CCC3(CCN(Cc4ccc(Cl)c(Cl)c4)C3)C2)c1` (stereo not drawn) [Example 1, N-(1-(7-(3,4-dichlorobenzyl)-2,7-diazaspiro[4.4]nonane-2-carbonyl)-1H-pyrazol-4-yl)-N-methylacetamide]: at MAGL, the IC50 is 0.1 to 1 µM and the inhibition at 1 µM was at least 75%. Also, on FAAH, the IC50 is at most 0.1 µM and the inhibition at 1 µM is at least 75%.

`CC(=O)N(C)c1cnn(C(=O)N2CCC3(CCN(Cc4ccc(C(F)(F)F)cc4)C3)C2)c1` (stereo not drawn) [Example 2, N-methyl-N-(1-(7-(4-(trifluoromethyl)benzyl)-2,7-diazaspiro[4.4]nonane-2-carbonyl)-1H-pyrazol-4-yl)acetamide]: at MAGL, the IC50 was 0.1 to 1 µM and the inhibition at 1 µM is at least 75%. Moreover, at FAAH, the IC50 lay in the range of 0.1 to 1 µM and the inhibition at 1 µM was at least 75%.

As to `CC(=O)N(C)c1cnn(C(=O)N2CCC3(CCN(Cc4ccc(N5CCOCC5)cc4Cl)C3)C2)c1` (stereo not drawn) [Example 4, N-(1-(7-(2-chloro-4-morpholinobenzyl)-2,7-diazaspiro[4.4]nonane-2-carbonyl)-1H-pyrazol-4-yl)-N-methylacetamide], at MAGL, the IC50 is 0.1 to 1 µM and the inhibition at 1 µM was at least 75%. In addition, at FAAH, the 50% inhibitory concentration (IC50) was at most 0.1 µM and the inhibition at 1 µM is at least 75%.

For `CS(=O)(=O)Nc1cnn(C(=O)N2CC3CN(Cc4ccccc4Cl)CC3C2)c1` (stereo not drawn) [Example 6, N-(1-(5-(2-chlorobenzyl)octahydropyrrolo[3,4-c]pyrrole-2-carbonyl)-1H-pyrazol-4-yl)methanesulfonamide], the figures for the IC50 on MAGL and at FAAH were 1 to 10 µM and 0.1 to 1 µM, respectively. Moreover, the inhibition at 1 µM at MAGL is 0 to 25%; on FAAH, at least 75%.

Consider `CS(=O)(=O)Nc1cnn(C(=O)N2CC3CN(Cc4cccc(Cl)c4)CC3C2)c1` (stereo not drawn) [Example 7, N-(1-(5-(3-chlorobenzyl)octahydropyrrolo[3,4-c]pyrrole-2-carbonyl)-1H-pyrazol-4-yl)methanesulfonamide], for which, at MAGL, the IC50 was 1 to 10 µM and the inhibition at 1 µM lay within 0 to 25%. In addition, at FAAH, the IC50 lay in the range of 0.1 to 1 µM and the inhibition at 1 µM is at least 75%.

For `CS(=O)(=O)Nc1cnn(C(=O)N2CC3CN(Cc4ccc(Cl)cc4)CC3C2)c1` (stereo not drawn) [Example 8, N-(1-(5-(4-chlorobenzyl)octahydropyrrolo[3,4-c]pyrrole-2-carbonyl)-1H-pyrazol-4-yl)methanesulfonamide], at MAGL, the IC50 lay in the range of 1 to 10 µM and the inhibition at 1 µM was 0 to 25%. For the same compound, on FAAH, the IC50 is 0.1 to 1 µM and the inhibition at 1 µM was at least 75%.

For `CC(=O)N(C)c1cnn(C(=O)N2CC3CN(Cc4cccc(Cl)c4)CC3C2)c1` (stereo not drawn) [Example 10, N-(1-(5-(3-chlorobenzyl)octahydropyrrolo[3,4-c]pyrrole-2-carbonyl)-1H-pyrazol-4-yl)-N-methylacetamide], at MAGL, the IC50 lay in the range of 0.1 to 1 µM and the inhibition at 1 µM was at least 75%. Moreover, at FAAH, the IC50 lay within 0.1 to 1 µM and the inhibition at 1 µM is at least 75%.

In the case of `CC(=O)N(C)c1cnn(C(=O)N2CC3CN(Cc4ccc(Cl)c(Cl)c4)CC3C2)c1` (stereo not drawn) [Example 12, N-(1-(5-(3,4-dichlorobenzyl)octahydropyrrolo[3,4-c]pyrrole-2-carbonyl)-1H-pyrazol-4-yl)-N-methylacetamide], the IC50 on MAGL is 0.1 to 1 µM; at FAAH, at most 0.1 µM. Moreover, the inhibition at 1 µM at MAGL and on FAAH was at least 75% throughout.

As to `CC(=O)N(C)c1cnn(C(=O)N2CC3CN(Cc4ccc(N5CCCC5)cc4)CC3C2)c1` (stereo not drawn) [Example 13, N-methyl-N-(1-(5-(4-(pyrrolidin-1-yl)benzyl)octahydropyrrolo[3,4-c]pyrrole-2-carbonyl)-1H-pyrazol-4-yl)acetamide], on MAGL, the IC50 fell in the range of 0.1 to 1 µM and the inhibition at 1 µM was at least 75%. Besides, at FAAH, the IC50 is 0.1 to 1 µM and the inhibition at 1 µM is at least 75%.

Consider `CC(=O)N(C)c1cnn(C(=O)N2CC3CN(Cc4ccc(C(F)(F)F)cc4)CC3C2)c1` (stereo not drawn) [Example 14, N-methyl-N-(1-(5-(4-(trifluoromethyl)benzyl)octahydropyrrolo[3,4-c]pyrrole-2-carbonyl)-1H-pyrazol-4-yl)acetamide], for which, on MAGL, the IC50 was at most 0.1 µM and the inhibition at 1 µM was at least 75%. Further, at FAAH, the concentration for half-maximal inhibition (IC50) is at most 0.1 µM and the inhibition at 1 µM was at least 75%.

As to `CC(=O)N(C)c1cnn(C(=O)N2CC3CN(Cc4ccc(N5CCOCC5)cc4Cl)CC3C2)c1` (stereo not drawn) [Example 16, N-(1-(5-(2-chloro-4-morpholinobenzyl)octahydropyrrolo[3,4-c]pyrrole-2-carbonyl)-1H-pyrazol-4-yl)-N-methylacetamide], on MAGL, the IC50 was at most 0.1 µM and the inhibition at 1 µM is at least 75%. Moreover, on FAAH, the IC50 is at most 0.1 µM and the inhibition at 1 µM is at least 75%.

In the case of `CC(=O)N(C)c1cnn(C(=O)N2CC3CN(Cc4ccc(N5CCOCC5)cc4C)CC3C2)c1` (stereo not drawn) [Example 17, N-methyl-N-(1-(5-(2-methyl-4-morpholinobenzyl)octahydropyrrolo[3,4-c]pyrrole-2-carbonyl)-1H-pyrazol-4-yl)acetamide], the inhibition at 1 µM on MAGL and on FAAH was at least 75% throughout.

As for `CC(=O)N(C)c1cnn(C(=O)N2CC3(CCN(Cc4ccc(Cl)c(Cl)c4)CC3)C2)c1` [Example 18, N-(1-(7-(3,4-dichlorobenzyl)-2,7-diazaspiro[3.5]nonane-2-carbonyl)-1H-pyrazol-4-yl)-N-methylacetamide], the inhibition at 1 µM at MAGL was 25 to 50%; on FAAH, at least 75%.

Take `CC(=O)N(C)c1cnn(C(=O)N2CC3(CCN(Cc4ccc(N5CCCC5)cc4)CC3)C2)c1` [Example 19, N-methyl-N-(1-(7-(4-(pyrrolidin-1-yl)benzyl)-2,7-diazaspiro[3.5]nonane-2-carbonyl)-1H-pyrazol-4-yl)acetamide]: the inhibition at 1 µM at MAGL is 50 to 75%; on FAAH it was 25 to 50%.

Take `CC(=O)N(C)c1cnn(C(=O)N2CC3(CCN(Cc4ccc(C(F)(F)F)cc4)CC3)C2)c1` [Example 20, N-methyl-N-(1-(7-(4-(trifluoromethyl)benzyl)-2,7-diazaspiro[3.5]nonane-2-carbonyl)-1H-pyrazol-4-yl)acetamide]: the values for the inhibition at 1 µM on MAGL and on FAAH were 25 to 50% and 50 to 75%, respectively.

In the case of `CC(=O)N(C)c1cnn(C(=O)N2CC3(CCN(Cc4ccc(N5CCOCC5)cc4Cl)CC3)C2)c1` [Example 22, N-(1-(7-(2-chloro-4-morpholinobenzyl)-2,7-diazaspiro[3.5]nonane-2-carbonyl)-1H-pyrazol-4-yl)-N-methylacetamide], on MAGL, the half-maximal inhibitory concentration (IC50) was in the range of 1 to 10 µM and the inhibition at 1 µM was 25 to 50%. At FAAH, the IC50 was 0.1 to 1 µM and the inhibition at 1 µM is at least 75%.

Turning to `CC(=O)N(C)c1cnn(C(=O)N2CC3(CCN(Cc4ccc(N5CCOCC5)cc4C)CC3)C2)c1` [Example 23, N-methyl-N-(1-(7-(2-methyl-4-morpholinobenzyl)-2,7-diazaspiro[3.5]nonane-2-carbonyl)-1H-pyrazol-4-yl)acetamide], the inhibition at 1 µM at MAGL and on FAAH was 25 to 50% in each case.

Take `CC(=O)N(C)c1cnn(C(=O)N2CCC3(CC2)CN(Cc2ccc(Cl)c(Cl)c2)C3)c1` [Example 24, N-(1-(2-(3,4-dichlorobenzyl)-2,7-diazaspiro[3.5]nonane-7-carbonyl)-1H-pyrazol-4-yl)-N-methylacetamide]: the IC50 at MAGL and at FAAH was at most 0.1 µM throughout. For the same compound, the inhibition at 1 µM on MAGL and on FAAH was at least 75% each time.

For orientation: IC50 means the point on the concentration scale where inhibition reaches its midpoint. A higher IC50 goes with weaker potency.
